Columns and labels:
Type in all cases: in vivo
[1] = test system: soybean plant (So); assay: Test Example 3: phytotoxicity to upland crop plants, treatment before emergence; settings: dosage 5 kg/ha
Outline: (§1)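 Compound formulated as a liquid agent at a prescribed concentration is sprayed before crop emergence. After fourteen days, damage to soybean and wheat is examined and rated by a judgment criterion.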

[2] = test system: wheat (Wh); assay: as above; settings: dosage 5 kg/ha
Outline: as §1

[3] = test system: cocklebur (Xanthium strumarium L.), Xs; assay: Test Example 3: herbicidal effect on upland weeds before emergence; settings: dosage 5 kg/ha
Outline: (§2)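 Read-out is the weed-killing rate, scored fourteen days after a single spray application made before the weeds emerged. The spray was a liquid agent carrying the active compound at a prescribed dose.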

[4] = test system: cleavers (Galium aparine L.), Ga; assay: as above; settings: dosage 5 kg/ha
Outline: as §2

[5] = test system: barnyard grass (Echinochloa crus-galli Beauv.), Ec; assay: as above; settings: dosage 5 kg/ha
Outline: as §2

[6] = test system: forxtail grass (Alopecurus aequalis var. amurensis Ohwi), Am; assay: as above; settings: foxtail grass, dosage 5 kg/ha
Outline: as §2

[7] = test system: velvetleaf (Abutilon theophtasti L.), At; assay: as above; settings: dosage 5 kg/ha
Outline: as §2

[8] = test system: bird's eye speedwell (Veronica persica Poir.), Vp; assay: as above; settings: dosage 5 kg/ha
Outline: as §2

[9] = test system: barnyard grass (Echinochloa crus-galli Beauv.); assay: Test Example 1: herbicidal effect on paddy field weeds before emergence; settings: Dosage 5 kg/ha
Outline: (§3)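 Seeds of both weeds, still ungerminated, in soil pots held under paddy conditions received a set dose of test solution as soil treatment. After twenty-one days, control relative to untreated pots was calculated and rated on a scoring scale.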

[10] = test system: bulrush (Scirpus juncoides Roxb.); assay: as above; settings: Dosage 5 kg/ha
Outline: as §3

[11] = test system: soybean plant; assay: Test Example 4: phytotoxicity to upland crop plants, treatment after emergence; settings: dosage 5 kg/ha, sprayed after emergence, judged 14 days after treatment
Outline: (§4)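 Scores of weed-killing rate, with crop phytotoxicity, come from inspection 14 days after plants in soil vats, grown to specified leaf stages, are sprayed with a formulation holding the compound at a prescribed concentration.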

[12] = test system: wheat; assay: as above; settings: dosage 5 kg/ha, sprayed after emergence, judged 14 days after treatment
Outline: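 Post-emergence foliar spray, compound at prescribed concentration, applied at defined leaf stages; weeds plus soybean/wheat grown in soil vats. Read-out: weed-killing rate and crop injury, 14 d post-treatment.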

[13] = test system: cocklebur (Xanthium strumarium L.), Xs; assay: Test Example 4: herbicidal effect on upland weeds after emergence; settings: dosage 5 kg/ha; sprayed after emergence; judged 14 days after treatment
Outline: as §4

[14] = test system: cleavers (Galium aparine L.), Ga; assay: as above; settings: dosage 5 kg/ha; sprayed after emergence; judged 14 days after treatment
Outline: as §4

[15] = test system: barnyard grass (Echinochloa crus-galli Beauv.), Ec; assay: as above; settings: dosage 5 kg/ha; sprayed after emergence; judged 14 days after treatment
Outline: as §4

[16] = test system: forxtail grass (Alopecurus aequalis var. amurensis Ohwi), Am; assay: as above; settings: dosage 5 kg/ha; sprayed after emergence; judged 14 days after treatment
Outline: as §4

[17] = test system: velvetleaf (Abutilon theophtasti L.), At; assay: as above; settings: dosage 5 kg/ha; sprayed after emergence; judged 14 days after treatment
Outline: as §4

[18] = test system: bird's eye speedwell (Veronica persica Poir.), Vp; assay: as above; settings: dosage 5 kg/ha; sprayed after emergence; judged 14 days after treatment
Outline: as §4

[19] = test system: barnyard grass (Echinochloa crus-galli Beauv.); assay: Test Example 2: herbicidal effect on paddy field weeds after emergence; settings: Dosage 5 kg/ha; one-leaved stage; 21 days after treatment
Outline: (§5)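 Weeds were sown in 1/10000 are pots of soil flooded to paddy conditions and grown to the one-leaf stage, then the soil was treated with a solution of compound at a predetermined dosage.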

[20] = test system: monochoria (Monochoria vaginalis Presl); assay: as above; settings: Dosage 5 kg/ha; one-leaved stage; 21 days after treatment
Outline: as §5

[21] = test system: bulrush (Scirpus juncoides Roxb.); assay: as above; settings: Dosage 5 kg/ha; one-leaved stage; 21 days after treatment
Outline: as §5

Row | Compound | Phytotoxicity So [1] | Phytotoxicity Wh [2] | Herbicidal effect Xs [3] | Herbicidal effect Ga [4] | Herbicidal effect Ec [5] | Herbicidal effect Am [6] | Herbicidal effect At [7] | Herbicidal effect Vp [8] | Pre-emergence treatment Barnyard grass (herbicidal effect) [9] | Pre-emergence treatment Bulrush (herbicidal effect) [10] | Phytotoxicity So [11] | Phytotoxicity Wh [12] | Herbicidal effect Xs [13] | Herbicidal effect Ga [14] | Herbicidal effect Ec [15] | Herbicidal effect Am [16] | Herbicidal effect At [17] | Herbicidal effect Vp [18] | Post-emergence treatment Barnyard grass (herbicidal effect) [19] | Post-emergence treatment Monochoria (herbicidal effect) [20] | other results
1 | CCNC(=O)c1nc2ccsc2cc1C(=O)Nc1c(CC)ccc(Cl)c1CC [compound 870] | 3 (Crop-killing rate is 70-89%.) | 4 (Crop-killing rate is 90-99%.) | 5 (Weed-killing rate is 100%.) | 5 (Weed-killing rate is 100%.) | 5 (Weed-killing rate is 100%.) | 5 (Weed-killing rate is 100%.) | 5 (Weed-killing rate is 100%.) | 5 (Weed-killing rate is 100%.) | 5 (Weed-killing rate is 100%.) | 5 (Weed-killing rate is 100%.) | 3 (Crop-killing rate is 70-89%.) | 4 (Crop-killing rate is 90-99%.) | 5 (Weed-killing rate is 100%.) | 5 (Weed-killing rate is 100%.) | 5 (Weed-killing rate is 100%.) | 5 (Weed-killing rate is 100%.) | 5 (Weed-killing rate is 100%.) | 5 (Weed-killing rate is 100%.) | 5 (Weed-killing rate is 100%.) | 5 (Weed-killing rate is 100%.) | Post-emergence treatment Bulrush (herbicidal effect) [21]: 5 (Weed-killing rate is 100%.)
2 | CCCNC(=O)c1nc2ccsc2cc1C(=O)Nc1c(CC)ccc(Cl)c1CC [compound 871] | 4 (Crop-killing rate is 90-99%.) | 5 (Crop-killing rate is 100%.) | 5 (Weed-killing rate is 100%.) | 5 (Weed-killing rate is 100%.) | 5 (Weed-killing rate is 100%.) | 5 (Weed-killing rate is 100%.) | 5 (Weed-killing rate is 100%.) | 5 (Weed-killing rate is 100%.) | 5 (Weed-killing rate is 100%.) | 5 (Weed-killing rate is 100%.) | 4 (Crop-killing rate is 90-99%.) | 5 (Crop-killing rate is 100%.) | 5 (Weed-killing rate is 100%.) | 5 (Weed-killing rate is 100%.) | 5 (Weed-killing rate is 100%.) | 5 (Weed-killing rate is 100%.) | 5 (Weed-killing rate is 100%.) | 5 (Weed-killing rate is 100%.) | 5 (Weed-killing rate is 100%.) | 5 (Weed-killing rate is 100%.) | Post-emergence treatment Bulrush (herbicidal effect) [21]: 5 (Weed-killing rate is 100%.)
3 | Cc1c(Cl)cccc1NC(=O)c1cc2sccc2nc1C(=O)NC1CCCC1 [compound 892] | 3 (Crop-killing rate is 70-89%.) | 4 (Crop-killing rate is 90-99%.) | 4 (Weed-killing rate is 90-99%.) | 5 (Weed-killing rate is 100%.) | 5 (Weed-killing rate is 100%.) | 5 (Weed-killing rate is 100%.) | 5 (Weed-killing rate is 100%.) | 5 (Weed-killing rate is 100%.) | 5 (Weed-killing rate is 100%.) | 5 (Weed-killing rate is 100%.) | 3 (Crop-killing rate is 70-89%.) | 4 (Crop-killing rate is 90-99%.) | 4 (Weed-killing rate is 90-99%.) | 4 (Weed-killing rate is 90-99%.) | 5 (Weed-killing rate is 100%.) | 5 (Weed-killing rate is 100%.) | 5 (Weed-killing rate is 100%.) | 5 (Weed-killing rate is 100%.) | 5 (Weed-killing rate is 100%.) | 5 (Weed-killing rate is 100%.) | Post-emergence treatment Bulrush (herbicidal effect) [21]: 5 (Weed-killing rate is 100%.)
4 | CCNC(=O)c1nc2ccn(OC)c2cc1C(=O)Nc1c(CC)ccc(Cl)c1CC [compound 894] | 4 (Crop-killing rate is 90-99%.) | 5 (Crop-killing rate is 100%.) | 5 (Weed-killing rate is 100%.) | 5 (Weed-killing rate is 100%.) | 5 (Weed-killing rate is 100%.) | 5 (Weed-killing rate is 100%.) | 5 (Weed-killing rate is 100%.) | 5 (Weed-killing rate is 100%.) | 5 (Weed-killing rate is 100%.) | 5 (Weed-killing rate is 100%.) | 4 (Crop-killing rate is 90-99%.) | 5 (Crop-killing rate is 100%.) | 4 (Weed-killing rate is 90-99%.) | 5 (Weed-killing rate is 100%.) | 5 (Weed-killing rate is 100%.) | 5 (Weed-killing rate is 100%.) | 5 (Weed-killing rate is 100%.) | 5 (Weed-killing rate is 100%.) | 5 (Weed-killing rate is 100%.) | 5 (Weed-killing rate is 100%.) | Post-emergence treatment Bulrush (herbicidal effect) [21]: 5 (Weed-killing rate is 100%.)
5 | CCCNC(=O)c1nc2ccn(OC)c2cc1C(=O)Nc1c(CC)ccc(Cl)c1CC [compound 895] | 4 (Crop-killing rate is 90-99%.) | 5 (Crop-killing rate is 100%.) | 5 (Weed-killing rate is 100%.) | 5 (Weed-killing rate is 100%.) | 5 (Weed-killing rate is 100%.) | 5 (Weed-killing rate is 100%.) | 5 (Weed-killing rate is 100%.) | 5 (Weed-killing rate is 100%.) | 5 (Weed-killing rate is 100%.) | 5 (Weed-killing rate is 100%.) | 4 (Crop-killing rate is 90-99%.) | 5 (Crop-killing rate is 100%.) | 5 (Weed-killing rate is 100%.) | 5 (Weed-killing rate is 100%.) | 5 (Weed-killing rate is 100%.) | 5 (Weed-killing rate is 100%.) | 5 (Weed-killing rate is 100%.) | 5 (Weed-killing rate is 100%.) | 5 (Weed-killing rate is 100%.) | 5 (Weed-killing rate is 100%.) | Post-emergence treatment Bulrush (herbicidal effect) [21]: 5 (Weed-killing rate is 100%.)
